Data reported in patent publication US12678488B2, “Batch management method for improving farrowing rate or number of piglets born alive in swine” (priority 2024, dated 2026).
Entries after “also recorded” stand apart in the source; their conditions may differ.

What was measured:
[1] = test system: ICR female mice; test: Mouse batch farrowing with FTAI model: embryo implantation number, embryo spacing, number born alive; assay type: in vivo; conditions: for embryo spacing upon embryo implantation: compared with batch farrowing model group
Method: 6-8-week-old ICR female mice acclimatized to the laboratory mouse house environment and in a good condition were selected and divided into a batch farrowing with FTAI model group, a batch farrowing with FTAI+low-dose model group, and a batch farrowing with FTAI+high-dose model group, and 10IU PMSG was injected at 17:00 pm. At 6-8 hours after a single injection of PMSG to the batch farrowing with FTAI+low-dose model group and the batch farrowing with FTAI+high-dose model group, respectively, the groups were supplemented with a low dose of 1-[bis(4-cyanophenyl)methyl]-1,2,4-triazole (10 μg/kg·BW) and a high dose of 1-[bis(4-cyanophenyl)methyl]-1,2,4-triazole (50 μg/kg·BW), respectively, and at 46-48 hours after the injection of PMSG, the groups were then injected with prepared 10IU GnRH and then put into a breeding male mouse cage. At 7:00-9:00 the next morning, vaginal plugs were examined, and this day was recorded as day 1 (D1) of pregnancy. In the afternoon of day 5 (D5) of pregnancy, 0.4 ml of 1% Chicago blue-normal saline solution was injected into model mice at the caudal vein, and after 3 minutes of systemic circulation, the mice were sacrificed by means of cervical dislocation, the abdominal cavity was immediately cut open, and the abdominal aorta was cut for bleeding. Then, uteri and ovaries were removed with surgical ophthalmic scissors, immersed in physiological saline for washing, and then put into a 4% paraformaldehyde fixation solution for 5 minutes of morphological fixation. Blue dots on the uterus were recorded as embryo implantation sites, the number of implantation sites was counted, and patterns of embryo spacing in different groups were drawn.
For some of the mice treated above, no intermediate test was done, and after the mice gave birth, the number born alive in each group was counted.

[2] = test system: Landrace x Large White binary sows; test: Number of ovulated oocytes (corpora lutea) in gilts slaughtered 16 days after mating (Example 4); assay type: in vivo, pigs; conditions: single low dose 12 μg/kg·BW, compared with batch farrowing with FTAI
Method: (§1) The breed of the gilts used in this experiment was Landrace x Large White binary sows, the gilts were randomly divided into the following 3 groups, and the treatment method for each group was as follows:
(§2) batch farrowing with FTAI: the gilts were fed with an altrenogest oral solution at 20 mg/gilt at the same time every day, for 18 days; PMSG at 1000 IU/gilt was injected intramuscularly 42 h after the last feeding with altrenogest, GnRH at 100 μg/gilt was injected intramuscularly after another 80 h, the first timed insemination was performed 24 h after the injection of GnRH, and the second timed insemination was performed after 24 h.
Treatment group 1 (batch farrowing with FTAI, with supplementing with 1-[bis(4-cyanophenyl)methyl]-1,2,4-triazole (12 μg/kg·BW, orally in a single dose): The hormone treatment and mating schemes for gilts were the same as those for gilts in the batch farrowing with FTAI. The gilts were administered orally once with 1-[bis(4-cyanophenyl)methyl]-1,2,4-triazole at 12 μg/kg·BW 8 h after the injection of PMSG.
The gilts in the batch farrowing with FTAI and the gilts in the batch farrowing with FTAI supplementing once with 1-[bis(4-cyanophenyl)methyl]-1,2,4-triazole (12 μg/kg·BW) were slaughtered. The gilts were slaughtered 16 days after mating, with 4 gilts slaughtered per group. […]

[3] = test system: estradiol; test: Peripheral blood estradiol level in gilts after insemination by radioimmunoassay (Example 4); assay type: in vivo, pigs; conditions: once low-dose 12-20 μg/kg·BW, day 2-day 16 after mating
Method: as §1
as §2, with “h. […]” for “h.”
Peripheral blood was collected from the gilts in the batch farrowing with FTAI and the batch farrowing with FTAI with supplementing with a single low dose of 1-[bis(4-cyanophenyl)methyl]-1,2,4-triazole at different times after mating, i.e., days 2, 4, 10 12, and 16 after mating, blood was collected from the anterior vena cava of the gilts and centrifuged, the supernatant was taken, stored at −20° C., and then detected for estradiol level by radioimmunoassay.
The detection steps were as follows: 12×75 mm disposable tubes were arranged on a tube rack, and were a total radioactivity counting (tc) tube, a non-specific binding (NSB) tube, a zero standard (0) tube, standard tubes, and sample tubes, respectively. […]

[4] = low dose 10 μg/kg·BW, compared with batch farrowing with FTAI model group

N#Cc1ccc(C(c2ccc(C#N)cc2)n2cncn2)cc1 [1-[bis(4-cyanophenyl)methyl]-1,2,4-triazole]
embryo spacing upon embryo implantation ([1]; high dose 50 μg/kg·BW): no effect on increasing the embryo spacing; also recorded: could not alleviate the overcrowding of embryos | number born alive ([1]; high dose 50 μg/kg·BW, compared with batch farrowing with FTAI model group): reduced number born alive; also recorded: decreased number born alive | embryo spacing upon embryo implantation ([1]; low dose 10 μg/kg·BW): increased embryo spacing; also recorded: increase the spacing between embryos | embryo implantation number [1, 4]: no significant effect; also recorded: no significant difference | number born alive [1, 4]: significantly increase the number born alive | number of ovulated oocytes [2]: no significant effect | blood estradiol (estrogen) level after mating [3]: no obvious change; also recorded: no significant effect
